Laboratory results reported in EPA's ToxRefDB 2.

Columns and labels:
rat [1] = conditions: Subchronic oral toxicity in rodents, sprague dawley, Water, dose end: 90 day, group: systemic
mouse [2] = conditions: Combined chronic toxicity/carcinogenicity; b6c3f1; Oral; Gavage/Intubation; dose end: 52 week; group: systemic; systemic / organ weight / liver / absolute + systemic / organ weight / liver / relative to body weight + systemic / pathology microscopic / …
rat [3] = conditions: Subchronic inhalation toxicity, sprague dawley, Whole-Body, dose end: 13 week, group: systemic, systemic / hematology / erythrocyte (rbc) count differential / erythrocyte (rbc) + systemic / hematology / hemoglobin (hgb) / hemoglobin (…
rat [4] = conditions: Subchronic oral toxicity in rodents, fischer, Gavage/Intubation, dose end: 13 week, group: systemic
rat [5] = conditions: Combined chronic toxicity/carcinogenicity; fischer; Inhalation; Whole-Body; dose end: 103 week; group: systemic; systemic / pathology microscopic / larynx / metaplasia + systemic / pathology microscopic / nose / pigmentation + systemic / pathology …
rabbit = conditions: Prenatal developmental toxicity study, new zealand white, Oral, Gavage/Intubation, dose end: 18 GD
mouse [6] = conditions: Combined chronic toxicity/carcinogenicity, b6c3f1, Inhalation, Whole-Body, dose end: 103 week, group: systemic
mouse [7] = conditions: Subchronic oral toxicity in rodents, b6c3f1, Gavage/Intubation, dose end: 13 week, group: systemic
dog [8] = conditions: Subchronic oral toxicity in nonrodent, beagle, Feed, dose end: 90 day
rat [9] = conditions: Prenatal developmental toxicity study, wistar, Oral, Gavage/Intubation, dose end: 16 GD
dog [10] = conditions: Chronic toxicity; beagle; Oral; Feed; dose end: 104 week; group: systemic; systemic / hematology / [other] / [other] + systemic / hematology / eosinophils / eosinophils + systemic / hematology / erythroblast / …
rat [11] = conditions: Multigenerational reproductive toxicity study, sprague dawley, Oral, Feed, dose end: 2 generation
[12] = systemic / clinical chemistry / alanine aminotransferase (alt/sgpt) / alanine aminotransferase (alt/sgpt) + systemic / clinical chemistry / …
[13] = systemic / clinical chemistry / protein / protein
[14] = systemic / in life observation / body weight / body weight gain + systemic / in life observation / clinical signs / fur (altered appearance…
[15] = group: developmental, developmental / developmental malformation / bone / malformation, total
[16] = group: maternal, systemic / in life observation / body weight / body weight gain + systemic / in life observation / clinical signs / defecation (diarrhea) + …
[17] = systemic / pathology microscopic / nose / pigmentation + systemic / pathology microscopic / trachea / pigmentation
[18] = systemic / organ weight / kidney / relative to brain weight + systemic / organ weight / liver / relative to brain weight
[19] = group: cholinesterase, cholinesterase / cholinesterase / cholinesterase / plasma cholinesterase (che) + cholinesterase / cholinesterase / cholinesterase / …
[20] = group: systemic, systemic / hematology / [other] / [other] + systemic / hematology / erythroblast / erythroblast + systemic / hematology / lymphocyte / …
[21] = group: developmental, developmental / developmental malformation / bone / [other] + developmental / developmental malformation / bone / bipartite ossification + …
[22] = group: maternal, systemic / in life observation / body weight / body weight gain + systemic / in life observation / food consumption / food consumption
[23] = group: offspring, systemic / in life observation / body weight / offspring (pup) weight
[24] = group: parental, systemic / in life observation / body weight / body weight gain + systemic / in life observation / food consumption / food consumption + …

## O=C(O)C(Cl)Cl [Dichloroacetic acid]
Rat [1]; [12]
  LOAEL: > 345 mg/kg/day
  NOAEL: ≥ 345 mg/kg/day
Rat [1]; [13]
  LEL: 3.9 mg/kg/day
  NEL: < 3.9 mg/kg/day
Mouse [2]
  LEL: 133 mg/kg/day
  LOAEL: > 267 mg/kg/day
  NEL: < 133 mg/kg/day
  NOAEL: ≥ 267 mg/kg/day

## ClC1=C(Cl)C(Cl)(Cl)C(Cl)=C1Cl [Hexachlorocyclopentadiene]
Rat [3]
  LEL: 0.01 ppm
  LOAEL: > 0.2 ppm
  NEL: < 0.01 ppm
  NOAEL: ≥ 0.2 ppm
Rat [4]; [14]
  LOAEL: > 150 mg/kg/day
  NEL: 10 mg/kg/day
  NOAEL: ≥ 150 mg/kg/day
Rat [4]; systemic / pathology microscopic / stomach / hyperplasia + systemic / pathology microscopic / stomach / inflammation
  LEL: 19 mg/kg/day
Rat [5]
  LEL: 0.01 ppm
  LOAEL: > 0.2 ppm
  NEL: < 0.01 ppm
  NOAEL: ≥ 0.2 ppm
rabbit; [15]
  LEL: 75 mg/kg/day
  LOAEL: > 75 mg/kg/day
  NEL: 25 mg/kg/day
  NOAEL: ≥ 75 mg/kg/day
rabbit; [16]
  LEL: 75 mg/kg/day
  LOAEL: 75 mg/kg/day
  NEL: 25 mg/kg/day
  NOAEL: 25 mg/kg/day
Mouse [6]; systemic / in life observation / body weight / body weight + systemic / pathology microscopic / nose / inflammation
  LOAEL: 0.2 ppm
Mouse [6]; systemic / in life observation / body weight / body weight + systemic / pathology microscopic / nose / inflammation + systemic / pathology …
  NOAEL: 0.05 ppm
Mouse [6]; [17]
  LEL: 0.01 ppm
  NEL: < 0.01 ppm
Mouse [7]; [14]
  LOAEL: > 300 mg/kg/day
  NOAEL: ≥ 300 mg/kg/day
Mouse [7]; [18]
  LEL: 19 mg/kg/day
  NEL: < 19 mg/kg/day

## Cc1nc(N(C)C)nc(OC(=O)N(C)C)c1C [Pirimicarb]
Dog [8]; [19]
  LEL: 10 mg/kg/day
  LOAEL: 10 mg/kg/day
  NEL: 4 mg/kg/day
  NOAEL: 4 mg/kg/day
Dog [8]; [20]
  LEL: 4 mg/kg/day
  LOAEL: 4 mg/kg/day
  NEL: 1.8 mg/kg/day
  NOAEL: 1.8 mg/kg/day
Rat [9]; [21]
  LEL: 75 mg/kg/day
  LOAEL: 75 mg/kg/day
  NEL: 25 mg/kg/day
  NOAEL: 25 mg/kg/day
Rat [9]; [22]
  LEL: 75 mg/kg/day
  LOAEL: 75 mg/kg/day
  NEL: 25 mg/kg/day
  NOAEL: 25 mg/kg/day
Dog [10]
  LEL: 4 mg/kg/day
  LOAEL: 4 mg/kg/day
  NEL: 1.8 mg/kg/day
  NOAEL: 1.8 mg/kg/day
Rat [11]; [23]
  LEL: 90.1 mg/kg/day
  LOAEL: 90.1 mg/kg/day
  NEL: 23.2 mg/kg/day
  NOAEL: 23.2 mg/kg/day
Rat [11]; [24]
  LEL: 81.8 mg/kg/day
  LOAEL: 81.8 mg/kg/day
  NEL: 21.7 mg/kg/day
  NOAEL: 21.7 mg/kg/day
